Results taken from patent US7407645B2, “Bioconjugates of metal complexes of nitrogen-containing macrocyclic ligands” (Metaphore Pharmaceuticals, Inc., priority 1995, dated 2008).

Assay: Relaxivity R1 from proton relaxation times (T1), inversion-recovery, 20 MHz
Type: physicochemical
Set-up: unit not given here
Conditions: 100 mM Hepes buffer, pH=7.4, 40° C., slope of 1/T1 versus concentration
Description: Relaxivity measurements of the complex of Example 1 was determined.
Proton relaxation times (T1) of the sample in 100 mM Hepes buffer, pH=7.4, at 40° C. were determined from a monoexponential curve fit obtained from inversion-recovery pulse sequences (180°-τ-90°) with a Bruker PC 120/125/10 VTs NMR process analyzer. The spectrometer was calibrated for each sample to assure accurate duration of 90° and 180° radio frequency pulses and appropriate magnetic field strength to match the 20 MHz system operating frequency. The relaxivity (R1) was obtained from the slope of a plot of 1/T1 versus the concentration of paramagnetic compound.

In the case of “[Manganese (II) dichloro 2,3-(R,R)-Cyclohexano-6-(S)-{3-(lithocholylamino)-propyl}-1,4,7,10,13-penta-azacclopentadecane] [Example 1]”, the “relaxivity R1” value is reported as 6.09.
